Measured values: patent US20130231292A1, “Synergistic anti-proliferation activity of TAS-108 with mTOR inhibitors against cancer cells” (priority 2012, published 2013)
Entries after “also recorded” stand apart in the source; their conditions may differ. Read-outs that look alike come from different tables or passages of the source.

Assays:
[1] = system: 60 cancer cell lines of different tissues of origin; assay: Non-bias 5x4 checkerboard combination screen of TAS108 with 30 chemotherapeutic agents; assay type: cell-based; design: ES: synergistic effect size: scale not given here; conditions: for ES: synergistic effect size: in combination with TAS-108, meta analysis across doses and 60 cell lines; for synergy with TAS-108 across the cell line panel (in words): in combination with TAS-108
Source text: We used 5×4 factorial (checkerboard) design. The combinations were screened against 60 cancer cell lines of different tissues of origin, including melanoma, ovarian, CNS, renal, lung, breast, colon, prostate, and leukemia cancers, represented by cell lines including LOXIMVI, M14,MDAMB468, HT29, NCIH522, HS578T, RPMI8226, HOP92, HL60, OVCAR8, SR, SKMEL2, PC3, HOP62, HCC2998,786O, U251, OVCAR3, NCIH23, T47D, SF295, MOLT4, HCT15, SF539, BT549, SN12C, KM12, ADRRES, A498, NCIH226, NCIH322M, OVCAR5, MALME, OVCAR4, RXF393, SW620, CCRFCEM, UACC62, ACHN, SKOV3, SF268, EKVX, A549, NCIH460, IGROV1, SNB75, UACC257, UO31, HCT116, TK10, K562, SKMEL28, COLO205, SNB19, MDAMB231, DU145, CAKI1, MDAMB435, and MCF7.
After quantifying the degree of synergy for specified doses of compounds within each individual cell line, we used meta analysis to aggregate those effects across doses and the cell line panel (Table 1).

MDAMB468 = assay: CellTiter-Glo cell viability assay, single agents, three days; assay type: cell-based; conditions: Homo sapiens, MDA-MB-468, 72 h; for Emax: read-out: Max Inhibition; for GI50: MDAMB468, three days, CellTiter-Glo
T47D = assay: as above; assay type: cell-based; conditions: Homo sapiens, 72 h; for Emax: read-out: Max Inhibition
BT549 = assay: as above; assay type: cell-based; conditions: Homo sapiens, BT-549, 72 h; for Emax: read-out: Max Inhibition; for GI50: BT549, three days, CellTiter-Glo
HS578T = assay: as above; assay type: cell-based; conditions: Homo sapiens, Hs-578T, 72 h; for Emax: read-out: Max Inhibition
MDAMB231 = assay: as above; assay type: cell-based; conditions: Homo sapiens, MDA-MB-231, 72 h; for Emax: read-out: Max Inhibition; for GI50: MDAMB231, three days, CellTiter-Glo
[2] = system: human mammary carcinoma cell lines; assay: Combination screen of TAS-108 with a second compound, all six breast lines; conditions: number of the six breast cell lines with synergy, in combination with TAS-108
Experimental: (§1) Cells were treated with compounds alone or in combination for three days and CellTiter-Glo® Luminescent Cell Viability Assay (Promega Corp.) was used as the endpoint to measure cell viability.
(§2) Cells were cultured in RPMI with 10% fetal bovine serum and used between passage 2 and passage 20.
(§3) Other compounds used were purchased from commercial sources (Sigma, AK Scientific). 40 mM Compound stocks in 100% DMSO were made. Master plates were made with Janus (PerkinElmer), then further diluted and added to the cell plates with Matrix Platemate (Thermo) on Day 0.
(§4) CellTiter-Glo® Luminescent Cell Viability Assay (Promega Corp.) was used to measure ATP as an indicator of viable cells on Day 3 using Envision (PerkinElmer) and back up plate reader Analyst HT (MDS) and Gen5 (BioTek).
(§5) Relative Luminescent Units (RLU) were plotted against corresponding drug concentrations and fitted with a standard four parameter sigmoidal curve with custom coded R program. Percentage growth inhibition is calculated as: [(Ti−Tz)/(C−Tz)]×100 for concentrations for which Ti≧Tz and [(Ti−Tz)/Tz]×100 for concentrations for which Ti<Tz.
(§6) Twenty-five doses were tested for each pair of combinations.
(§7) N: no synergistic effect; Y: synergistic effect; y: weak synergistic effect.

HS 578T = assay: Combination screen of TAS-108 with a second compound, CellTiter-Glo; conditions: in combination with TAS-108
Experimental: as §1, §2, §3, §4, §5, §6, §7

MCF7 = assay: CellTiter-Glo cell viability assay, single agents, three days; assay type: cell-based; conditions: Homo sapiens; for Emax: read-out: Max Inhibition
[3] = Phase II clinical trial; cited from earlier work
[4] = compared to Tamoxifen; cited from earlier work
[5] = compared to Tamoxifen; cited from earlier work; remark: listed apart in the source
[6] = system: breast carcinoma cells with aromatose inhibitor resistant characteristics; conditions: aromatase inhibitor resistant characteristics; cited from earlier work
[7] = system: Tamoxifen-sensitive and Tamoxifen-resistant breast carcinomas; conditions: in vitro and in vivo; cited from earlier work
[8] = three days, CellTiter-Glo, read-out: GI50
[9] = HS578T, three days, CellTiter-Glo, read-out: GI50
[10] = 72 h, MCF7, highest dose tested
[11] = 72 h, MCF7, three days, CellTiter-Glo, read-out: GI50

## CCCCCOC(=O)Nc1nc(=O)n([C@@H]2O[C@H](C)[C@@H](O)[C@H]2O)cc1F [Capecitabine]
[1]
  ES: synergistic effect size: −0.001

## N.N.O=C([O-])C1(C(=O)[O-])CCC1.[Pt+2] [Carboplatin]
[1]
  ES: synergistic effect size: −0.004

## Nc1ccn([C@@H]2O[C@H](CO)[C@@H](O)[C@@H]2O)c(=O)n1 [Cytarabine]
[1]
  ES: synergistic effect size: −0.008

## Cc1nc(Nc2ncc(C(=O)Nc3c(C)cccc3Cl)s2)cc(N2CCN(CCO)CC2)n1 [Dasatinib]
MDAMB468; MDAMB468, highest dose tested
  Emax: 40%
MDAMB468
  GI50: 16 µM
T47D; highest dose tested
  Emax: 37%
T47D; [8]
  GI50: 0.86 µM
BT549; BT549, highest dose tested
  Emax: 51%
BT549
  GI50: 0.058 µM
HS578T; HS578T, highest dose tested
  Emax: 79%
HS578T; [9]
  GI50: 0.015 µM
MDAMB231; MDAMB231, highest dose tested
  Emax: 82%
MDAMB231
  GI50: 0.0099 µM

## CC(=O)O[C@@]12CO[C@@H]1C[C@H](O)[C@@]1(C)C(=O)[C@H](O)C3=C(C)[C@@H](OC(=O)[C@H](O)[C@@H](NC(=O)OC(C)(C)C)c4ccccc4)C[C@@](O)([C@@H](OC(=O)c4ccccc4)[C@H]21)C3(C)C [Docetaxel]
[1]
  synergy with TAS-108 across the cell line panel (in words): synergy was consistently found; also recorded: significant synergy
  ES: synergistic effect size: 0.23

## C#Cc1cccc(Nc2ncnc3cc(OCCOC)c(OCCOC)cc23)c1 [Erlotinib]
MDAMB468; MDAMB468, highest dose tested
  Emax: 34%
MDAMB468
  GI50: 76 µM

## CO[C@H]1C[C@@H]2CC[C@@H](C)[C@@](O)(O2)C(=O)C(=O)N2CCCC[C@H]2C(=O)O[C@H]([C@H](C)C[C@@H]2CC[C@@H](OCCO)[C@H](OC)C2)CC(=O)[C@H](C)/C=C(\C)[C@@H](O)[C@@H](OC)C(=O)[C@H](C)C[C@H](C)/C=C/C=C/C=C/1C [Everolimus]
[2]
  Synergy #: 6
MDAMB468; MDAMB468, highest dose tested
  Emax: 100%
MDAMB468
  GI50: 0.063 µM
T47D; highest dose tested
  Emax: 49%
T47D; [8]
  GI50: 0.052 µM
HS 578T
  Synergistic effect of TAS 108 paired with compound: Y
BT549; BT549, highest dose tested
  Emax: 100%
BT549
  GI50: 5.8 µM
MCF7; [10]
  Emax: 43%
MCF7; [11]
  GI50: 0.17 µM
HS578T; HS578T, highest dose tested
  Emax: 41%
HS578T; [9]
  GI50: 0.063 µM
[1]
  synergy with TAS-108 across the cell line panel (in words): synergy was consistently found; also recorded: significant synergy
  ES: synergistic effect size: 0.037
MDAMB231; MDAMB231, highest dose tested
  Emax: 40%
MDAMB231
  GI50: 54 µM

## C[C@]12CC[C@@H]3c4ccc(O)cc4C[C@@H](CCCCCCCCC[S+]([O-])CCCC(F)(F)C(F)(F)F)[C@H]3[C@@H]1CC[C@@H]2O (stereo partly shown) [Faslodex]
T47D; highest dose tested
  Emax: 24%
MCF7; [10]
  Emax: 30%
MCF7; [11]
  GI50: 1 µM

## O=c1[nH]c(=O)n([C@H]2C[C@H](O)[C@@H](CO)O2)cc1F [Floxuridine]
[1]
  ES: synergistic effect size: −0.016

## Nc1nc(F)nc2c1ncn2[C@@H]1O[C@H](CO)[C@@H](O)[C@@H]1O [FluroaraA]
[1]
  ES: synergistic effect size: 0.008

## Nc1ccn([C@@H]2O[C@H](CO)[C@@H](O)C2(F)F)c(=O)n1 [Gemcitabine]
[1]
  ES: synergistic effect size: −0.007

## Cc1ccc(NC(=O)c2ccc(CN3CCN(C)CC3)cc2)cc1Nc1nccc(-c2cccnc2)n1 [Imatinib]
BT549
  GI50: 29 µM
MDAMB231; MDAMB231, highest dose tested
  Emax: 91%
MDAMB231
  GI50: 26 µM

## CS(=O)(=O)CCNCc1ccc(-c2ccc3ncnc(Nc4ccc(OCc5cccc(F)c5)c(Cl)c4)c3c2)o1 [Lapatinib]
MDAMB468; MDAMB468, highest dose tested
  Emax: 99%
MDAMB468
  GI50: 1.9 µM
T47D; highest dose tested
  Emax: 31%
T47D; [8]
  GI50: 5.8 µM
MDAMB231; MDAMB231, highest dose tested
  Emax: 98%
MDAMB231
  GI50: 14 µM

## Cc1cn(-c2cc(NC(=O)c3ccc(C)c(Nc4nccc(-c5cccnc5)n4)c3)cc(C(F)(F)F)c2)cn1 [Nilotinib]
MDAMB231
  GI50: 14 µM

## O=C(c1ccc(OCCN2CCCCC2)cc1)c1c(-c2ccc(O)cc2)sc2cc(O)ccc12 [Raloxifene]
MCF7; [10]
  Emax: 27%
MCF7; [11]
  GI50: 25 µM

## CO[C@H]1C[C@@H]2CC[C@@H](C)[C@@](O)(O2)C(=O)C(=O)N2CCCC[C@H]2C(=O)O[C@H]([C@H](C)C[C@@H]2CC[C@@H](O)[C@H](OC)C2)CC(=O)[C@H](C)/C=C(\C)[C@@H](O)[C@@H](OC)C(=O)[C@H](C)C[C@H](C)/C=C/C=C/C=C/1C [Rapamycin]
MDAMB468; MDAMB468, highest dose tested
  Emax: 100%
MDAMB468
  GI50: 0.063 µM
T47D; highest dose tested
  Emax: 45%
T47D; [8]
  GI50: 0.047 µM
BT549; BT549, highest dose tested
  Emax: 99%
BT549
  GI50: 0.22 µM
MCF7; [10]
  Emax: 55%
MCF7; [11]
  GI50: 0.054 µM
HS578T; HS578T, highest dose tested
  Emax: 41%
HS578T; [9]
  GI50: 1 µM
MDAMB231; MDAMB231, highest dose tested
  Emax: 95%
MDAMB231
  GI50: 11 µM

## C/C=C1\NC(=O)[C@H]2CSSCC/C=C/[C@H](CC(=O)N[C@H](C(C)C)C(=O)N2)OC(=O)[C@H](C(C)C)NC1=O [Romidepsin]
MDAMB468
  Emax: 99.8%
T47D
  GI50: 0.0011 µM
  Emax: 96.7%
BT549
  Emax: 99.8%
MCF7; MCF7, 72 h
  GI50: 0.00044 µM
  Emax: 94%
HS578T
  GI50: 0.0003 µM
  Emax: 99.6%
MDAMB231
  Emax: 99.9%

## CCc1c2c(nc3ccc(O)cc13)-c1cc3c(c(=O)n1C2)COC(=O)[C@]3(O)CC [SN38]
[1]
  ES: synergistic effect size: 0.022

## CCN(CC)CCNC(=O)c1c(C)[nH]c(/C=C2\C(=O)Nc3ccc(F)cc32)c1C [Sunitinib]
MDAMB468
  GI50: 21 µM
BT549; BT549, highest dose tested
  Emax: 100%
BT549
  GI50: 4.2 µM
HS578T; HS578T, highest dose tested
  Emax: 65%
HS578T; [9]
  GI50: 6.9 µM
MDAMB231; MDAMB231, highest dose tested
  Emax: 99%
MDAMB231
  GI50: 5.6 µM

## CCN(CC)Cc1ccc(OCC[C@H]2CC[C@H]3[C@@H]4[C@H](C)Cc5cc(O)ccc5[C@H]4CC[C@]23C)c(OC)c1 [TAS-108, (7α)-21-[4-[(Diethylamino)methyl]-2-methoxyphenoxy]-7-methyl-19-norpregna-1,3,5(10)-trien-3-ol 2-hydroxy-1,2,3-propanetricarboxylate]
MDAMB468; MDAMB468, highest dose tested
  Emax: 100%
MDAMB468
  GI50: 1.8 µM
T47D; highest dose tested
  Emax: 100%
T47D; [8]
  GI50: 11 µM
BT549; BT549, highest dose tested
  Emax: 100%
BT549
  GI50: 13 µM
[3]
  clinical benefit: provided clinical benefits
  tolerability: well tolerated
[4]
  bone density: protects against reductions in bone density, similar to Tamoxifen
[5]
  uterotrophic activity: significantly less uterotrophic activity compared to Tamoxifen
MCF7; [10]
  Emax: 99%
MCF7; [11]
  GI50: 10 µM
HS578T; HS578T, highest dose tested
  Emax: 100%
HS578T; [9]
  GI50: 8.2 µM
[6]
  growth of breast carcinoma cells: inhibits the growth
MDAMB231; MDAMB231, highest dose tested
  Emax: 100%
MDAMB231
  GI50: 9.3 µM
[7]
  anti-tumor activity: potent anti-tumor activity

## CC[C@]1(O)C[C@H]2CN(CCc3c([nH]c4ccccc34)[C@@](C(=O)OC)(c3cc4c(cc3OC)N(C=O)[C@H]3[C@@](O)(C(=O)OC)[C@H](OC(C)=O)[C@]5(CC)C=CCN6CC[C@]43[C@@H]65)C2)C1 [Vincristine]
[1]
  ES: synergistic effect size: 0.023

## O=C(CCCCCCC(=O)Nc1ccccc1)NO [Vorinostat]
[1]
  ES: synergistic effect size: 0.004
